PMC4605517 (PLoS ONE, 2015)
No end group written: not given here. FLAG = FLAG epitope tag (3XFLAG, N-terminal)

Tests used:
[1] = test system: multiple myeloma and ovarian cancer xenografts; conditions: ref [22]; cited from earlier work
Description: (§1) hRpn13 functions in ovarian and colorectal cancer proliferation, and its knockdown triggers apoptosis in these and other cancer cell lines.

[2] = test system: ubiquitin-mediated protein degradation; conditions: ref [22]; cited from earlier work
Description: as §1

Rpn13 Cys88 = conditions: ref [22]; cited from earlier work
Description: as §1

[3] = test system: Rpn13 interdomain interactions; conditions: ref [22]; cited from earlier work
Description: as §1

proteasome subunit hRpt3 = assay: anti-FLAG immunoprecipitation, immunoprobed for endogenous hRpt3; assay type: cell-based, human; conditions: 293T cells; anti-FLAG IP; Fig 5A
Experimental: (§2) The DNA fragment encoding amino acid 916 to 953 of hRpn2 was amplified by PCR and cloned into the bacterial expression vector pRSET and mammalian expression vector p3XFLAG-CMV7.1. Antibodies used in this study include anti-FLAG (Sigma), anti-hRpn2 (cell signaling), anti-hRpt3 (Abcam), and anti-hRpn13 (Abcam).
(§3) 293T cells (purchased from ATCC) were cultured in DMEM supplemented with 10% fetal bovine serum at 37°C in a humidified atmosphere and 5% CO2. Plasmid DNA was transfected into 293T cells using Lipofectamine2000 (Invitrogen) according to the manufacturer’s instruction. Cells were harvested by gentle centrifugation at 500g for 5 minutes at 4°C after washing with PBS, and cell pellets were resuspended in 1% Triton-TBS buffer (50 mM Tris, pH7.5, 150 mM NaCl, 1 mM EDTA and protease inhibitor cocktail) followed by rocking at 4°C for 30 minutes. The supernatant was collected following centrifugation at 16,000g for 10 minutes and incubated with antibodies at 4°C overnight. Protein G sepharose beads (Sigma) were used to pull down interacting proteins by 3-hour incubation at 4°C. After extensive washing with 1% Triton TBS buffer, SDS-PAGE loading buffer was used to elute proteins from beads for immunoblotting. […]

proteasome subunit hRpn2 = assay: anti-FLAG immunoprecipitation, immunoprobed for endogenous hRpn2; assay type: cell-based, human; conditions: 293T cells; anti-FLAG IP; Fig 5A
Experimental: as §2, §3

hRpn13 at the proteasome = assay: anti-hRpt3 immunoprecipitation of proteasome, immunoprobed for hRpn13 (displacement); assay type: cell-based, human; conditions: 293T cells over-expressing peptide; anti-hRpt3 IP, anti-hRpn13 immunoblot; Fig 6A
Experimental: as §2
as §3, with “4°C.” for “4°C. After extensive washing with 1% Triton TBS buffer, SDS-PAGE loading buffer was used to elute proteins from beads for immunoblotting.”
(§4) We next tested whether over-expression of the hRpn2-derived peptide depletes hRpn13 from the proteasome. For this purpose, we immunoprecipitated proteasome by anti-hRpt3 antibody and detected the presence of hRpn13 by immunoprobing with anti-hRpn13 antibody.

hRpn2 in the proteasome = assay: anti-hRpt3 immunoprecipitation of proteasome, immunoprobed for hRpn2; assay type: cell-based, human; conditions: 293T cells over-expressing peptide; anti-hRpt3 IP; Fig 6A
Experimental: as §2
as §3, with “4°C.” for “4°C. After extensive washing with 1% Triton TBS buffer, SDS-PAGE loading buffer was used to elute proteins from beads for immunoblotting.”
as §4

[4] = test system: ubiquitinated proteins in 293T cells; assay: accumulation of ubiquitinated proteins, immunoblot of cell lysates; assay type: cell-based, human; conditions: 293T cells transfected with HA-ubiquitin and peptide plasmid; anti-ubiquitin immunoblot, actin loading control; Fig 6B
Experimental: (§5) 293T cells (purchased from ATCC) were cultured in DMEM supplemented with 10% fetal bovine serum at 37°C in a humidified atmosphere and 5% CO2. Plasmid DNA was transfected into 293T cells using Lipofectamine2000 (Invitrogen) according to the manufacturer’s instruction. Cells were harvested by gentle centrifugation at 500g for 5 minutes at 4°C after washing with PBS, and cell pellets were resuspended in 1% Triton-TBS buffer (50 mM Tris, pH7.5, 150 mM NaCl, 1 mM EDTA and protease inhibitor cocktail) followed by rocking at 4°C for 30 minutes. The supernatant was collected following centrifugation at 16,000g for 10 minutes and incubated with antibodies at 4°C overnight. Protein G sepharose beads (Sigma) were used to pull down interacting proteins by 3-hour incubation at 4°C. After extensive washing with 1% Triton TBS buffer, SDS-PAGE loading buffer was used to elute proteins from beads for immunoblotting.
We next tested whether over-expression of the hRpn2-derived peptide in 293T cells leads to the accumulation of ubiquitinated proteins. Lysates from cells transfected with HA-ubiquitin alone or together with either FLAG-hRpn2 (916–953) WT or F948Stop were subjected to immunoblotting with anti-ubiquitin antibody. Cells expressing F948Stop were used as a negative control, and immunoblotting with anti-actin antibody to confirm equivalent loading.

endogenous hRpn13 = assay: anti-FLAG immunoprecipitation, immunoprobed for endogenous hRpn13; assay type: cell-based, human; conditions: 293T cells transfected with p3XFLAG-CMV7.1 plasmid; anti-FLAG IP, anti-Rpn13 immunoblot
Experimental: as §5
The resulting plasmid was transfected into 293T cells and the cell lysate immunoprecipitated with anti-FLAG antibody.

hRpn13 (1–150) [5] = biological target: T1, hRpn13 (1–150) (human, UniProt Q16186 1-150); assay: SEC + other: LC-MS; hRpn2 (916-953):hRpn13 Pru complex passed over a size exclusion column after mixing to remove excess component; molar ratio evaluated by LC-MS; conditions: both partners purified
T1 construct: human Rpn13/Adrm1, Pru (pleckstrin-like receptor for ubiquitin) domain, residues 1-150; also called hRpn13 Pru domain; hRpn13 Pru

hRpn13 (1–150) [6] = biological target: T1, hRpn13 (1–150); assay: ITC; 200 μM hRpn2 (916-953) injected into 20 μM hRpn13 (1-150) in the cell; 25°C; 20 mM sodium phosphate, 50 mM NaCl, 10 mM βME, pH 6.5; one-site fit; conditions: both partners purified

T1 sequence (Q16186 1-150): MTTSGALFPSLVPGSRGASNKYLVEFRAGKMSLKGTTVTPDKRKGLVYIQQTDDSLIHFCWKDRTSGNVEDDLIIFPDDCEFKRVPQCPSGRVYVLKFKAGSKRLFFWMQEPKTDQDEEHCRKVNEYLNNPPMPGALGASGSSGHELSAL

For `Cl.N[C@@H](Cc1ccccc1)C(=O)N1C/C(=C/c2ccc(Cl)c(Cl)c2)C(=O)/C(=C\c2ccc(Cl)c(Cl)c2)C1` [RA190], the “growth of multiple myeloma and ovarian cancer xenografts” value [1] is listed as “restricts growth of multiple myeloma and ovarian cancer xenografts”, the “effect on ubiquitin-mediated protein degradation” value [2] is listed as “inhibits ubiquitin-mediated protein degradation” and the “covalent attachment to Rpn13” value (Rpn13 Cys88) is listed as “covalently attaches to Rpn13 Cys88”. The “effect on Rpn13 interdomain interactions” value [3] was “abrogates Rpn13 interdomain interactions”.

For “FLAG-hRpn2 (916–953) WT: hRpn2 (916–953) fragment in frame with an N-terminal FLAG tag, expressed from p3XFLAG-CMV7.1 in 293T cells ({FLAG}-DTSEDIEELVEPVAAHGPKIEEEEQEPEPPEPFEYIDD; UniProt Q99460 916-953, looked up, fragment)”, the “immunoprecipitation of endogenous hRpt3” value (proteasome subunit hRpt3) was “neither of these RP components was immunoprecipitated by the peptide”, the “immunoprecipitation of endogenous hRpn2” value (proteasome subunit hRpn2) was “neither of these RP components was immunoprecipitated by the peptide” and the “amount of hRpn13 at the proteasome” value (hRpn13 at the proteasome) was “significantly reduced the amount of hRpn13 at the proteasome”. For the same molecule, the “assembly of hRpn2 into the proteasome” value (hRpn2 in the proteasome) was “not affected by expression of the hRpn2-derived peptide”, the “presence of ubiquitinated proteins in cell lysate” value [4] was “increase in the presence of ubiquitinated proteins” and the “immunoprecipitation of / interaction with endogenous hRpn13” value (from here on “immunoprecipitation of / interaction”) (endogenous hRpn13) was “confirmed the interaction of the hRpn2-derived peptide with endogenous hRpn13 in 293T cells”.

With “F948Stop: FLAG-hRpn2 (916–953) variant with F948 replaced with a stop codon; negative control (DTSEDIEELVEPVAAHGPKIEEEEQEPEPPEP; not fully specified (N-terminus))” the “amount of hRpn13 at the proteasome” value (hRpn13 at the proteasome) was “does not deplete hRpn13 from proteasome”, the “presence of ubiquitinated proteins in cell lysate” value [4] was “increase was not observed” and the “immunoprecipitation of / interaction” value (endogenous hRpn13) was “does not bind hRpn13”.

For “F948 with arginine: FLAG-hRpn2 (916–953) variant with F948 replaced with arginine ({FLAG}-DTSEDIEELVEPVAAHGPKIEEEEQEPEPPEPREYIDD; UniProt Q99460 916-953, looked up, variant F948R)”, the “immunoprecipitation of / interaction” value (endogenous hRpn13) was “unable to immunoprecipitate endogenous hRpn13 from 293T cells”.

B1: hRpn2 (916–953) (peptide)
chain: GPGSDTSEDIEELVEPVAAHGPKIEEEEQEPEPPEPFEYIDD
notes: amino acids that remained at the N-terminal end from the PreScission protease tag after cleavage; human Rpn2/PSMD1, proteasome PC repeat protein, residues 916-953 (the C-terminal 38 amino acids); also called hRpn2-derived peptide; 38-amino acid peptide derived from the C-terminus of hRpn2/PSMD1; source: E. coli, purified (glutathione S-sepharose, PreScission cleavage, Superdex 75); not shown: …
With B1 the “stoichiometry N” value (hRpn13 (1–150) [5]) was 1 and the Kd (hRpn13 (1–150) [6]) was 12 nM.
